According to US20120214862A1, “MODULATION OF FACTOR 7 EXPRESSION” (ISIS Pharmaceuticals, Inc., priority 2009, published 2012):
In the oligonucleotide strings, read from the 5' end, every base follows the letter of its sugar. An asterisk marks phosphorothioate; unmarked linkages are phosphodiester. Other units and linkages are bracketed, terminal groups are in braces. A string of capitals states the bases alone. e = 2'-O-(2-methoxyethyl) (MOE); [5mC] = 5-methylcytosine; d = 2'-deoxy (DNA)

Tested on: human Factor 7 mRNA
Test: Inhibition of human Factor 7 mRNA by 2-10-2 MOE shortmers in HepB3 cells, electroporation, 1,000 nM
Assay type: cell-based
Details: electroporation, 1,000 nM oligonucleotide, approximately 24 hours, relative to untreated control cells
Excerpt: Short antisense oligonucleotides (shortmers) were designed to target a Factor 7 nucleic acid. The shortmers in Table 17 were designed as 2-10-2 MOE gapmers. The gapmers are 14 nucleotides in length, wherein the central gap segment is comprised of 10 2′-deoxynucleotides and is flanked on both sides (in the 5′ and 3′ directions) by wings comprising 2 nucleotides each. Each nucleotide in the 5′ wing segment and each nucleotide in the 3′ wing segment has a 2′-MOE modification. The internucleoside linkages throughout each gapmer are phosphorothioate (P═S) linkages. All cytidine residues throughout each gapmer are 5-methylcytidines.
Shortmers were evaluated for their ability to reduce human Factor 7 mRNA in HepB3 cells and compared with one 5-10-5 chimeric oligonucleotide from Table 16, ISIS 407939. HepB3 cells at a density of 20,000 cells per well in a 96-well plate were transfected using electroporation with 1,000 nM of antisense oligonucleotide. After a treatment period of approximately 24 hours, RNA was isolated from the cells and Factor 7 mRNA levels were measured by real-time RT-PCR, as described herein. Factor 7 mRNA levels were adjusted according to total RNA content as measured by RIBOGREEN®. Results are presented in Table 17 as percent inhibition of Factor 7 mRNA, relative to untreated control cells. ISIS 407939 is the first oligonucleotide in […] to which the shortmers were compared, and is marked by an asterisk (*).

| Substance | % inhibition of human Factor 7 mRNA |
| --- | --- |
| 435684 (antisense eA*eG*d[5mC]*dA*dG*d[5mC]*dG*d[5mC]*dG*dA*dT*dG*eT*e[5mC]) [compound 435684] | 56% |
| 435655 (antisense eA*e[5mC]*dA*dG*d[5mC]*d[5mC]*dG*d[5mC]*d[5mC]*dG*dT*dT*e[5mC]*eT) [compound 435655] | 49% |
| 435639 (antisense eT*e[5mC]*d[5mC]*dA*dG*dA*dA*d[5mC]*dA*dG*d[5mC]*dT*eT*e[5mC]) [compound 435639] | 31% |
| 435773 (antisense e[5mC]*eA*dG*dG*dG*dA*dA*d[5mC]*dA*d[5mC]*d[5mC]*d[5mC]*eT*e[5mC]) [compound 435773] | 57% |
| 435730 (antisense eT*eA*dA*dA*d[5mC]*dA*dA*d[5mC]*d[5mC]*dG*d[5mC]*d[5mC]*eT*eT) [compound 435730] | 49% |
| 435715 (antisense e[5mC]*eA*dG*d[5mC]*d[5mC]*dA*d[5mC]*dT*d[5mC]*dG*dA*dT*eG*eT) [compound 435715] | 35% |
| 435840 (antisense eG*eG*dG*d[5mC]*d[5mC]*d[5mC]*dG*d[5mC]*d[5mC]*dA*d[5mC]*dT*eG*eG) [compound 435840] | 0% |
| 435737 (antisense eG*eT*dG*d[5mC]*dA*dG*d[5mC]*d[5mC]*d[5mC]*dG*dG*d[5mC]*eA*e[5mC]) [compound 435737] | 70% |
| 435502 (antisense eG*eT*dA*d[5mC]*dT*dG*dG*dG*dA*dG*dA*d[5mC]*e[5mC]*e[5mC]) [compound 435502] | 69% |
| 435778 (antisense eG*e[5mC]*dT*dA*d[5mC]*dT*dG*dG*dG*d[5mC]*d[5mC]*dA*e[5mC]*eG) [compound 435778] | 49% |
| 435766 (antisense eG*e[5mC]*dA*d[5mC]*d[5mC]*dT*dG*d[5mC]*dA*dG*d[5mC]*d[5mC]*eA*eG) [compound 435766] | 51% |
| 435716 (antisense eT*eT*dT*dT*dG*d[5mC]*dA*dG*d[5mC]*d[5mC]*dA*d[5mC]*eT*e[5mC]) [compound 435716] | 22% |
| 435827 (antisense eT*e[5mC]*dA*dG*dA*dA*dA*dG*dA*dT*dG*d[5mC]*eA*eG) [compound 435827] | 5% |
| 435850 (antisense e[5mC]*eT*dT*dG*dG*d[5mC]*d[5mC]*dA*dG*dT*dG*dT*eG*eG) [compound 435850] | 15% |
| 435732 (antisense eG*eA*dA*dA*dA*dG*dT*dG*dA*dG*dA*dG*e[5mC]*eT) [compound 435732] | 0% |
| 435481 (antisense eG*eG*dG*dT*d[5mC]*dA*dT*d[5mC]*dA*dG*d[5mC]*d[5mC]*eG*eG) [compound 435481] | 50% |
| 435824 (antisense e[5mC]*e[5mC]*dT*dA*dA*dA*dG*dA*dT*dG*dA*dA*eT*e[5mC]) [compound 435824] | 21% |
| 435659 (antisense eT*eA*d[5mC]*d[5mC]*d[5mC]*d[5mC]*dT*d[5mC]*dG*dT*dG*dG*e[5mC]*eA) [compound 435659] | 18% |
| 435673 (antisense eA*eG*dA*d[5mC]*d[5mC]*dA*d[5mC]*d[5mC]*d[5mC]*dA*dG*dA*eT*eG) [compound 435673] | 34% |
| 435688 (antisense eA*e[5mC]*d[5mC]*dA*d[5mC]*dA*dT*dG*dG*dT*d[5mC]*dA*eG*eT) [compound 435688] | 0% |
| 435752 (antisense eT*eG*d[5mC]*dA*dG*d[5mC]*dT*dT*dG*d[5mC]*d[5mC]*dA*eG*eG) [compound 435752] | 12% |
| 435829 (antisense eG*eG*dG*dT*dA*dG*dA*d[5mC]*d[5mC]*d[5mC]*dT*d[5mC]*eA*eG) [compound 435829] | 18% |
| 435790 (antisense eA*eT*dG*dA*d[5mC]*d[5mC]*dA*dT*d[5mC]*d[5mC]*dT*d[5mC]*eA*eA) [compound 435790] | 1% |
| 435767 (antisense e[5mC]*eA*d[5mC]*d[5mC]*dA*dA*dG*dT*dT*dT*dA*dT*eG*eG) [compound 435767] | 0% |
| 435654 (antisense eG*e[5mC]*d[5mC]*dG*dT*dT*d[5mC]*dT*d[5mC]*dG*dT*dT*e[5mC]*eA) [compound 435654] | 71% |
| 435687 (antisense eA*eT*dG*dG*dT*d[5mC]*dA*dG*dT*dG*dA*dG*eG*eA) [compound 435687] | 7% |

| Substance | % inhibition of human Factor 7 mRNA |
| --- | --- |
| 435489 (antisense e[5mC]*eT*dG*dG*dT*dG*dT*dA*d[5mC]*dA*d[5mC]*d[5mC]*e[5mC]*e[5mC]) [compound 435489] | 72% |
| 435787 (antisense eG*eA*dG*dT*dG*dT*dG*dA*dG*dG*d[5mC]*dT*eT*e[5mC]) [compound 435787] | 34% |
| 435815 (antisense e[5mC]*eT*d[5mC]*dT*dT*d[5mC]*d[5mC]*dG*dA*dG*d[5mC]*dA*eG*e[5mC]) [compound 435815] | 59% |
| 435657 (antisense eG*e[5mC]*dA*dG*dT*dA*d[5mC]*dT*dG*d[5mC]*dT*d[5mC]*eA*e[5mC]) [compound 435657] | 69% |
| 435677 (antisense eG*eT*dG*d[5mC]*dT*d[5mC]*dG*d[5mC]*d[5mC]*d[5mC]*dA*dG*e[5mC]*eA) [compound 435677] | 60% |
| 435738 (antisense e[5mC]*eA*dG*dA*dG*dG*dA*dT*dG*dA*dG*d[5mC]*eA*e[5mC]) [compound 435738] | 16% |
| 435671 (antisense eT*e[5mC]*dA*d[5mC]*d[5mC]*dA*dA*d[5mC]*dA*dA*d[5mC]*dA*eG*eG) [compound 435671] | 28% |
| 435694 (antisense e[5mC]*eT*dG*d[5mC]*dA*dG*dG*d[5mC]*dA*dG*dT*d[5mC]*e[5mC]*eT) [compound 435694] | 39% |
| 435753 (antisense eA*eA*dG*dA*dG*dT*dG*d[5mC]*dA*dG*d[5mC]*dT*eT*eG) [compound 435753] | 9% |
| 435651 (antisense eA*e[5mC]*dA*dG*dT*dT*d[5mC]*d[5mC]*dG*dG*d[5mC]*d[5mC]*e[5mC]*eT) [compound 435651] | 71% |
| 435800 (antisense eG*eG*dA*d[5mC]*d[5mC]*d[5mC]*dA*dA*dA*dG*dT*dG*eG*eG) [compound 435800] | 0% |
| 435831 (antisense eG*eA*dT*d[5mC]*dT*dT*d[5mC]*dA*d[5mC]*dA*dT*dA*eG*e[5mC]) [compound 435831] | 51% |
| 435820 (antisense e[5mC]*eA*dT*d[5mC]*d[5mC]*dT*dA*dG*dT*d[5mC]*dA*d[5mC]*eT*eG) [compound 435820] | 19% |
| 435724 (antisense e[5mC]*eT*dG*dA*dG*dG*d[5mC]*d[5mC]*dA*dG*d[5mC]*dA*eG*eA) [compound 435724] | 52% |
| 435810 (antisense e[5mC]*eT*dG*dA*dG*dG*dG*dA*dA*dT*dG*dT*eT*eG) [compound 435810] | 1% |
| 435809 (antisense e[5mC]*eT*dG*dA*d[5mC]*dA*dA*dT*dG*dT*dG*dA*eT*eG) [compound 435809] | 5% |
| 435802 (antisense eG*eT*d[5mC]*dA*d[5mC]*d[5mC]*dT*dA*dG*dA*d[5mC]*d[5mC]*eA*eA) [compound 435802] | 61% |
| 435731 (antisense eG*eT*dG*dA*dG*dA*dG*d[5mC]*dT*dA*dA*dA*e[5mC]*eA) [compound 435731] | 11% |
| 435818 (antisense eG*eT*d[5mC]*dA*dT*d[5mC]*d[5mC]*dT*dT*dG*dT*d[5mC]*eT*eG) [compound 435818] | 43% |
| 435678 (antisense eA*eG*dG*dT*d[5mC]*dG*dT*dG*d[5mC]*dT*d[5mC]*dG*e[5mC]*e[5mC]) [compound 435678] | 67% |
| 435733 (antisense e[5mC]*eT*dG*dA*dA*dT*dT*dG*dT*d[5mC]*dT*dG*eA*eA) [compound 435733] | 5% |
| 435832 (antisense eT*eG*d[5mC]*dT*d[5mC]*dA*dG*dA*d[5mC]*d[5mC]*dT*dG*eG*e[5mC]) [compound 435832] | 70% |
| 435490 (antisense e[5mC]*e[5mC]*dT*dG*dG*dT*dG*dT*dA*d[5mC]*dA*d[5mC]*e[5mC]*e[5mC]) [compound 435490] | 49% |
| 435758 (antisense e[5mC]*e[5mC]*d[5mC]*dT*dG*dA*dG*d[5mC]*dT*dG*dG*dG*e[5mC]*eA) [compound 435758] | 4% |
| 435798 (antisense eA*eG*d[5mC]*d[5mC]*dA*dG*dA*d[5mC]*dT*dT*dT*d[5mC]*e[5mC]*eT) [compound 435798] | 54% |
